Read-outs that look alike come from different tables or passages of the source.
Biological target: T1, VAV1 (Homo sapiens, UniProt P15498+Q96SW2)
T1 construct: A heterozygous VAV1 C-terminal HiBiT knock-in pool was generated at Monte Rosa Therapeutics from a clonal Jurkat cell; endogenous in cells; host or cells: Jurkat clone stably expressing LgBiT, homozygous GSPT1-G575N; heterozygous VAV1-HiBiT knock-in pool
Assay: VAV1 degradation activity, VAV1-HiBiT knock-in Jurkat luminescence assay (Example A, Table 1)
Format: cell-based
Details: VAV1-HiBiT knock-in Jurkat cells; for Dmax: Jurkat
Procedure: Cells were plated at 10,000 cells per well using Multiflo (BioTek) or Multi Drop Combi (Thermo Fisher) in 384-well white solid bottom plates (Corning, 3570BC) in 25 ul volume in RPMI 1640 media (Thermo Fischer, 22400105) containing 10% FBS (Corning, 35-075-CV), 1% Penicillin/Streptomycin (ThermoFisher Scientific, 15140-122), and 1% Endurazine (Nano-Glo Endurazine Live Cell Substrate (Promega, N2571)). Cells were incubated for ˜16 hours at 37° C., 5% CO2. 25 nL of a compound at 10 μM were dosed into the plate using an Echo® 650 liquid handler (Labcyte). Cells were incubated at 37° C., 5% CO2 and signal was read at 6 and 24 hours after compound addition on a Pherastar FSX using “LUM plus” optic module.
Analysis was performed in Scinamic (Scinamic, Cambridge, MA). Luminescence response (R) was calculated by the formula: response=100*(S−N)/(P−N) where S is the signal of the well, N and P the mean negative and positive control values respectively of the same plate. The luminescence response was then fitted in Scinamic using a 3-parameter agonist logistic fit (hillslope=1, EC50>0, top/bottom unconstrained).

[1] = luminescence read at 6 and 24 hours, read-out: VAV1 Dmax %
[2] = luminescence read at 6 and 24 hours, read-out: VAV1 Dmax %, class
[3] = luminescence read at 6 and 24 hours, read-out: VAV1 DC50
[4] = luminescence read at 6 and 24 hours, read-out: VAV1 DC50 (nM), class

| SMILES | Dmax [1] | Dmax [2] | DC50 [3] | DC50 [4] | VAV1 Dmax % (luminescence read at 6 and 24 hours) | Dmax (luminescence read at 6 and 24 hours after compound addition, read-out: VAV1 Dmax %) | Dmax (luminescence read at 6 and 24 hours after compound addition, read-out: VAV1 Dmax %, class) | DC50 (luminescence read at 6 and 24 hours after compound addition, read-out: VAV1 DC50) | DC50 (luminescence read at 6 and 24 hours after compound addition, read-out: VAV1 DC50 (nM), class) |
| --- | --- | --- | --- | --- | --- | --- | --- | --- | --- |
| O=C1CC[C@@H](c2cccc(-c3ccc(-n4ccccc4=O)cc3)c2Cl)C(=O)N1 [Compound 211, (S)-3-(2-chloro-4′-(2-oxopyridin-1(2H)-yl)-[1,1′-biphenyl]-3-yl)piperidine-2,6-dione] | 97.9% | > 90% | 3.07 nM | ≤ 100 nM | – | – | – | – | – |
| O=C1CCC(c2cccc(-c3ccc(Cn4cccnc4=O)nc3)c2Cl)C(=O)N1 (stereo not drawn) [Compound 434, 3-(2-chloro-3-(6-((2-oxopyrimidin-1(2H)-yl)methyl)pyridin-3-yl)phenyl)piperidine-2,6-dione] | 46.2% | < 60% | ≥ 10000 nM | > 1000 nM | – | – | – | – | – |
| O=C1CCC(c2cccc(-c3ccc(N4C(=O)CCCC4=O)cc3)c2Cl)C(=O)N1 (stereo not drawn) [Compound 205, 1-(2′-chloro-3′-(2,6-dioxopiperidin-3-yl)-[1,1′-biphenyl]-4-yl)piperidine-2,6-dione] | 90.4% | > 90% | 16.4 nM | ≤ 100 nM | – | – | – | – | – |
| CCc1cc(-c2cccc(C3CCC(=O)NC3=O)c2Cl)ccc1N (stereo not drawn) [Compound 101] | 96% | > 90% | 12.3 nM | ≤ 100 nM | – | – | – | – | – |
| O=C1CCC(c2c(F)ccc(-c3ccc(Cn4ccccc4=O)cc3)c2Cl)C(=O)N1 (stereo not drawn) [Compound 143, 3-(2-chloro-4-fluoro-4′-((2-oxopyridin-1(2H)-yl)methyl)-[1,1′-biphenyl]-3-yl)piperidine-2,6-dione] | 55% | < 60% | 6160 nM | > 1000 nM | – | – | – | – | – |
| O=C1CCC(c2cccc(-c3ccc(NC(=O)N4CCCC4)cc3)c2Cl)C(=O)N1 (stereo not drawn) [Compound 248, N-(2′-chloro-3′-(2,6-dioxopiperidin-3-yl)-[1,1′-biphenyl]-4-yl)pyrrolidine-1-carboxamide] | 84.4% | 60 to 90% | 26.3 nM | ≤ 100 nM | – | – | – | – | – |
| Cc1cccn(Cc2ccc(-c3cccc(C4CCC(=O)NC4=O)c3Cl)cc2)c1=O (stereo not drawn) [Compound 187, 3-(2-chloro-4′-((3-methyl-2-oxopyridin-1(2H)-yl)methyl)-[1,1′-biphenyl]-3-yl)piperidine-2,6-dione] | 94.2% | > 90% | 9.75 nM | ≤ 100 nM | – | – | – | – | – |
| O=C1CCC(c2cccc(-c3cccc(CC4CCC(F)C(=O)N4)c3)c2Cl)C(=O)N1 (stereo not drawn) [Compound 270] | 89.6% | 60 to 90% | 31.3 nM | ≤ 100 nM | – | – | – | – | – |
| CN1CCCN(Cc2ccc(-c3cccc(C4CCC(=O)NC4=O)c3Cl)cn2)C1=O (stereo not drawn) [Compound 432, 3-(2-chloro-3-(6-((3-methyl-2-oxotetrahydropyrimidin-1(2H)-yl)methyl)pyridin-3-yl)phenyl)piperidine-2,6-dione] | 71.9% | 60 to 90% | 182 nM | 100 to 1000 nM | – | – | – | – | – |
| O=C1CCC(c2cccc(-c3ccc(N4C(=O)OCC45CCC5)cc3)c2Cl)C(=O)N1 (stereo not drawn) [Compound 416, 3-(2-chloro-4′-(6-oxo-7-oxa-5-azaspiro[3.4]octan-5-yl)-[1,1′-biphenyl]-3-yl)piperidine-2,6-dione] | 98% | > 90% | 3.54 nM | ≤ 100 nM | – | – | – | – | – |
| O=C1CCC(c2cccc(-c3ccc(N4C(=O)OCC45CC5)nc3)c2Cl)C(=O)N1 (stereo not drawn) [Compound 356, 3-(2-chloro-3-(6-(5-oxo-6-oxa-4-azaspiro[2.4]heptan-4-yl)pyridin-3-yl)phenyl)piperidine-2,6-dione] | 86% | 60 to 90% | 71.4 nM | ≤ 100 nM | – | – | – | – | – |
| Cn1ccc(Cc2ccc(-c3cccc(C4CCC(=O)NC4=O)c3Cl)cc2)n1 (stereo not drawn) [Compound 176, 3-(2-chloro-4′-((1-methyl-1H-pyrazol-3-yl)methyl)-[1,1′-biphenyl]-3-yl)piperidine-2,6-dione] | 98% | > 90% | 4.41 nM | ≤ 100 nM | – | – | – | – | – |
| Cc1ccn(C)c(=O)c1-c1ccc(-c2cccc(C3CCC(=O)NC3=O)c2Cl)cc1 (stereo not drawn) [Compound 448, 3-(2-chloro-4′-(1,4-dimethyl-2-oxo-1,2-dihydropyridin-3-yl)-[1,1′-biphenyl]-3-yl)piperidine-2,6-dione] | 98.7% | > 90% | 1.63 nM | ≤ 100 nM | – | – | – | – | – |
| CC(Oc1ccc(-c2cccc(C3CCC(=O)NC3=O)c2Cl)cc1)c1ccn(C)n1 (stereo not drawn) [Compound 173, 3-(2-chloro-4′-(1-(1-methyl-1H-pyrazol-3-yl)ethoxy)-[1,1′-biphenyl]-3-yl)piperidine-2,6-dione] | 88.1% | 60 to 90% | 40.2 nM | ≤ 100 nM | – | – | – | – | – |
| Cn1cccc(N2CCc3cc(-c4cccc(C5CCC(=O)NC5=O)c4Cl)ccc32)c1=O (stereo not drawn) [Compound 509, 3-(2-chloro-3-(1-(1-methyl-2-oxo-1,2-dihydropyridin-3-yl)indolin-5-yl)phenyl)piperidine-2,6-dione] | – | – | – | – | – | 97.8% | > 90% | 3.85 nM | ≤ 100 nM |
| O=C1CCC(c2cccc(-c3ccc(OCC4CCCO4)cc3)c2Cl)C(=O)N1 (stereo not drawn) [Compound 119] | 87.1% | 60 to 90% | 69.3 nM | ≤ 100 nM | – | – | – | – | – |
| Cn1ccc(COc2ccc(-c3cccc([C@H]4CCC(=O)NC4=O)c3Cl)cc2)n1 [Compound 213, (R)-3-(2-chloro-4′-((1-methyl-1H-pyrazol-3-yl)methoxy)-[1,1′-biphenyl]-3-yl)piperidine-2,6-dione] | 92% | > 90% | 101 nM | 100 to 1000 nM | – | – | – | – | – |

The remaining lines, values ahead:

| Dmax [1] | Dmax [2] | DC50 [3] | DC50 [4] | VAV1 Dmax % (luminescence read at 6 and 24 hours) | Dmax (luminescence read at 6 and 24 hours after compound addition, read-out: VAV1 Dmax %) | Dmax (luminescence read at 6 and 24 hours after compound addition, read-out: VAV1 Dmax %, class) | DC50 (luminescence read at 6 and 24 hours after compound addition, read-out: VAV1 DC50) | DC50 (luminescence read at 6 and 24 hours after compound addition, read-out: VAV1 DC50 (nM), class) | SMILES |
| --- | --- | --- | --- | --- | --- | --- | --- | --- | --- |
| 86.2% | 60 to 90% | 71.2 nM | ≤ 100 nM | – | – | – | – | – | O=C1CCC(c2cccc(-c3ccc(CN4Cc5ccncc5C4=O)cc3)c2Cl)C(=O)N1 (stereo not drawn) [Compound 301] |
| 71.2% | 60 to 90% | 615 nM | 100 to 1000 nM | – | – | – | – | – | N#CC1(CN2C(=O)Cc3cc(-c4cccc(C5CCC(=O)NC5=O)c4Cl)ccc32)CC1 (stereo not drawn) [Compound 390, 1-((5-(2-chloro-3-(2,6-dioxopiperidin-3-yl)phenyl)-2-oxoindolin-1-yl)methyl)cyclopropane-1-carbonitrile] |
| 24.7% | < 60% | ≥ 10000 nM | > 1000 nM | – | – | – | – | – | C#Cc1ccc(C2CCC(=O)NC2=O)c(Cl)c1-c1ccc(OCc2ccn(C)n2)cc1 (stereo not drawn) [Compound 172, 3-(2-chloro-6-ethynyl-4′-((1-methyl-1H-pyrazol-3-yl)methoxy)-[1,1′-biphenyl]-3-yl)piperidine-2,6-dione] |
| 87.1% | 60 to 90% | 31.6 nM | ≤ 100 nM | – | – | – | – | – | COc1ccn(Cc2ccc(-c3cccc(C4CCC(=O)NC4=O)c3Cl)cc2)c(=O)c1 (stereo not drawn) [Compound 175, 3-[2-chloro-3-[4-[(4-methoxy-2-oxo-1-pyridyl)methyl]phenyl]phenyl]piperidine-2,6-dione] |
| 96.6% | > 90% | 5.86 nM | ≤ 100 nM | – | – | – | – | – | O=C1CCC(c2cccc(-c3ccc(Cc4nccc(C5COC5)n4)cc3)c2Cl)C(=O)N1 (stereo not drawn) [Compound 340, 3-(2-chloro-4′-((4-(oxetan-3-yl)pyrimidin-2-yl)methyl)-[1,1′-biphenyl]-3-yl)piperidine-2,6-dione] |
| 33.3% | < 60% | ≥ 10000 nM | > 1000 nM | 33.28% | – | – | – | – | O=C1CCC(c2c(F)ccc(-c3ccc(Cn4ccccc4=O)cc3)c2F)C(=O)N1 (stereo not drawn) [Compound 147, 3-(2,4-difluoro-4′-((2-oxopyridin-1(2H)-yl)methyl)-[1,1′-biphenyl]-3-yl)piperidine-2,6-dione] |
| 78.2% | 60 to 90% | 119 nM | 100 to 1000 nM | – | – | – | – | – | N#Cc1cc(-c2cccc(C3CCC(=O)NC3=O)c2Cl)ccc1O (stereo not drawn) [Compound 112] |
| 81.5% | 60 to 90% | 77 nM | ≤ 100 nM | – | – | – | – | – | O=C1CCC(c2cccc(-c3ccc(Cc4ncccn4)nc3)c2Cl)C(=O)N1 (stereo not drawn) [Compound 400, 3-(2-chloro-3-(6-(pyrimidin-2-ylmethyl)pyridin-3-yl)phenyl)piperidine-2,6-dione] |
| 88.5% | 60 to 90% | 41.4 nM | ≤ 100 nM | – | – | – | – | – | O=C1CCC(c2cccc(-c3ccc(N4C(=O)CCCC45CC5)nc3)c2Cl)C(=O)N1 (stereo not drawn) [Compound 389, 3-(2-chloro-3-(6-(5-oxo-4-azaspiro[2.5]octan-4-yl)pyridin-3-yl)phenyl)piperidine-2,6-dione] |

Source: patent US12257247B2 (Monte Rosa Therapeutics AG, priority 2023, dated 2025)
